In ChEMBL document CHEMBL5126595, “Identification and anti-tumor evaluation of 3-acyl-indol-based 2,4-diarylaminopyrimidine analogues as potent ALK inhibitors capable of overcoming drug-resistant mutants” (Eur J Med Chem, 2022) one finds IC50 and half-life data, which are given here for 33 compounds.

Data set [1] deals with Epidermal growth factor receptor (Homo sapiens, UniProt P00533). Description: Inhibition of human EGFR (669 to 1210 residues) cytoplasmic domain expressed in baculovirus infected Sf21 cells incubated for 1 hrs in the presence of ATP by mobility shift assay.
Sequence of Epidermal growth factor receptor (P00533 whole entry, the tested form may be a part): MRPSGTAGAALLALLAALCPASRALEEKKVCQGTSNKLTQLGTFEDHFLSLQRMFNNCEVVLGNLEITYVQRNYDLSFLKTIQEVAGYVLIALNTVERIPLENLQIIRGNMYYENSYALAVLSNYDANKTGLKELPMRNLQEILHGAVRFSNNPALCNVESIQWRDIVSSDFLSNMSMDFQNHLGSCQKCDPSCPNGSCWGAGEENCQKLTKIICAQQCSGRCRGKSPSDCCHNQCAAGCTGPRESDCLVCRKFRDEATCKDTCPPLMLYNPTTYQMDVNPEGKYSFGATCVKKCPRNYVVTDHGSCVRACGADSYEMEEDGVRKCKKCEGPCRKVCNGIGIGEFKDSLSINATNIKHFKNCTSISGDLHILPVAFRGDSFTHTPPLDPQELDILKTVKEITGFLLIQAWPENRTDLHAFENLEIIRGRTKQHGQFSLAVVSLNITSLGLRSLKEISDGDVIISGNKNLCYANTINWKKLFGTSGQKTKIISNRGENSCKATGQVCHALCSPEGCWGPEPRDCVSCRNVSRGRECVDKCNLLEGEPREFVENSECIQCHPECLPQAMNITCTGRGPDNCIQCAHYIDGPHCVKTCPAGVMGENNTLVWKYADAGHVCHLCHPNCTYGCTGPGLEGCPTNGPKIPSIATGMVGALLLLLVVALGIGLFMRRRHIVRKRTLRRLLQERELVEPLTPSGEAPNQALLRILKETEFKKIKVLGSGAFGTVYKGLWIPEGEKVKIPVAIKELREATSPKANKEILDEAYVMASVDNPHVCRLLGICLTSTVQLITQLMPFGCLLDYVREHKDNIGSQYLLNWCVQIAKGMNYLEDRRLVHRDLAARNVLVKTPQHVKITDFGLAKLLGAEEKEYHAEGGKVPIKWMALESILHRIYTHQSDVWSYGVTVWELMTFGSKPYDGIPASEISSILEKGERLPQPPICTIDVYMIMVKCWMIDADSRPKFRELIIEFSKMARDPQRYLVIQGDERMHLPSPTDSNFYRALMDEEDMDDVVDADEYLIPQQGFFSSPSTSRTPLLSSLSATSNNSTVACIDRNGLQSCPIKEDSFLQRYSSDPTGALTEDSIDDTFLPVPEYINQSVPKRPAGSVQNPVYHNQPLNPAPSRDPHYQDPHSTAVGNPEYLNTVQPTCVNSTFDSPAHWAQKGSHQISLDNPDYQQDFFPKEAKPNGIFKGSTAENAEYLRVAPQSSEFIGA
Data set [2] addresses ALK tyrosine kinase receptor (Homo sapiens, UniProt Q9UM73, L1196M). Description: Inhibition of N-terminal GST-tagged human ceritinib-resistant ALK L1196M mutant (1058 to 1620 residues) cytoplasmic domain expressed in baculovirus infected Sf21 cells incubated for 1 hrs in the presence of ATP by mobility shift assay.
Data set [3] deals with KARPAS-299. The data set can be described thus: Antiproliferative activity against NPM-ALK positive human KARPAS-299 cells assessed as inhibition of cell growth incubated for 72 hrs by MTT assay. In kind it is functional, cell-based. As to conditions: KARPAS-299, 72 h.
Data set [4] concerns NCI-H2228. Description: Antiproliferative activity against EML4-ALK positive human NCI-H2228 cells assessed as inhibition of cell growth incubated for 72 hrs by MTT assay. As to conditions: NCI-H2228, 72 h. Type of data set: functional, cell-based. (In general: Formazan colour is commonly taken as a measure of viable cells.)
The test system of data set [5] is A549. The data set can be described thus: Antiproliferative activity against EGFR positive human A549 cells assessed as inhibition of cell growth incubated for 72 hrs by MTT assay. Type of data set: functional, cell-based. The conditions noted are these: A549, 72 h.
In data set [6] the target is ALK tyrosine kinase receptor (Homo sapiens, UniProt Q9UM73). Description: Inhibition of N-terminal GST-tagged human wild type ALK (1058 to 1620 residues) cytoplasmic domain expressed in baculovirus infected Sf21 cells incubated for 1 hrs in the presence of ATP by mobility shift assay.
Sequence of ALK tyrosine kinase receptor (Homo sapiens, UniProt Q9UM73) (Q9UM73 whole entry, the tested form may be a part): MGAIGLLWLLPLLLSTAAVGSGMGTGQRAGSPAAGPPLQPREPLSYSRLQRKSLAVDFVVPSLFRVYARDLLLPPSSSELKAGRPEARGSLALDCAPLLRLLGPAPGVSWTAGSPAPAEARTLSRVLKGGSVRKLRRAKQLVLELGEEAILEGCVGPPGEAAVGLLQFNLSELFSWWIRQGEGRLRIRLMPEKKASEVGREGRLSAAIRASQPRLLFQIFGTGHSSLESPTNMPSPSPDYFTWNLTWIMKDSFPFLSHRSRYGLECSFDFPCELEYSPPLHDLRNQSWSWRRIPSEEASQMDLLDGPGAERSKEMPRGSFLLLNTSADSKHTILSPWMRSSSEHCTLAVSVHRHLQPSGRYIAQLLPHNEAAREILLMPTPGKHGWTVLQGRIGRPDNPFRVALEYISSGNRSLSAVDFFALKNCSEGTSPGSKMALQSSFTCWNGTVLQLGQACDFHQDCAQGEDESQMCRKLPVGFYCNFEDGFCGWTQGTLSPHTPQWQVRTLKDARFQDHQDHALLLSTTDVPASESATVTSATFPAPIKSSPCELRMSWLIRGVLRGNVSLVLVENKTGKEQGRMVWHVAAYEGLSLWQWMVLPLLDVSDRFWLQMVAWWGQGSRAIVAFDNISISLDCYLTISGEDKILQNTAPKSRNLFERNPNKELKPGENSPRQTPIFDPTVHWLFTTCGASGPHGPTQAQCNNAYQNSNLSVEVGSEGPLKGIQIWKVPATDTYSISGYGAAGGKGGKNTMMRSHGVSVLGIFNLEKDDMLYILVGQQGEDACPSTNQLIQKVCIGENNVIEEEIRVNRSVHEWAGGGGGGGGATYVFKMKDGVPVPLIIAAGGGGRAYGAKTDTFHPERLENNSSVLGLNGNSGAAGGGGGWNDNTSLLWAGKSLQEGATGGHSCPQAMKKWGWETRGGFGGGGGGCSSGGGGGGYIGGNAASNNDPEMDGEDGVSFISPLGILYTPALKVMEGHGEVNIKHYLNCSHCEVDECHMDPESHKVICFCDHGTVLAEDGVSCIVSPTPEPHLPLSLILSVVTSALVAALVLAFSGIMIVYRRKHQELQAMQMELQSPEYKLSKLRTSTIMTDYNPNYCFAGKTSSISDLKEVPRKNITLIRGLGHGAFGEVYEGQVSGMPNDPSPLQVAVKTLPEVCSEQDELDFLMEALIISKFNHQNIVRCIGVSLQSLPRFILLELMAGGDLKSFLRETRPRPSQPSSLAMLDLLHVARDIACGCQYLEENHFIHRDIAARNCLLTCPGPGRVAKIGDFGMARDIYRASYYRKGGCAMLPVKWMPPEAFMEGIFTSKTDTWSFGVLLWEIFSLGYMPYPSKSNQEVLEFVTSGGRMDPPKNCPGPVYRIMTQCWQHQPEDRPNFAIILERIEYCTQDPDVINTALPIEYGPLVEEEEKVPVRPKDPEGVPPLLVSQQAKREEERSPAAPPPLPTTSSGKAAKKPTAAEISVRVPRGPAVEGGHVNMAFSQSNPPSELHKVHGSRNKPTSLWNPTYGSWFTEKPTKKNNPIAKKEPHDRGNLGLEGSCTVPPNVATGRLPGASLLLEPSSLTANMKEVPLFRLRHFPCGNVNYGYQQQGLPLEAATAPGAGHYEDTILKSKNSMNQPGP
Data set [7] concerns the target ALK tyrosine kinase receptor (Homo sapiens, UniProt Q9UM73, G1202R). Description: Inhibition of N-terminal GST-tagged human ceritinib-resistant ALK G1202R mutant (1058 to 1620 residues) cytoplasmic domain expressed in baculovirus infected Sf21 cells incubated for 1 hrs in the presence of ATP by mobility shift assay.
A short description of data set [8]: Metabolic stability in Sprague-Dawley rat liver microsomes assessed as half-life at 10 uM preincubated for 5 mins in the presence of NADPH followed by microsomal addition and measured upto 60 mins by HPLC analysis. The conditions noted are these: time < 65 min. In kind it is ADME, Microsome. (In general: Liver microsomes are a subcellular fraction often used to study metabolism.)

Sequence of ALK tyrosine kinase receptor (Homo sapiens, UniProt Q9UM73, G1202R) (Q9UM73 19-1620 G1202R limits assumed): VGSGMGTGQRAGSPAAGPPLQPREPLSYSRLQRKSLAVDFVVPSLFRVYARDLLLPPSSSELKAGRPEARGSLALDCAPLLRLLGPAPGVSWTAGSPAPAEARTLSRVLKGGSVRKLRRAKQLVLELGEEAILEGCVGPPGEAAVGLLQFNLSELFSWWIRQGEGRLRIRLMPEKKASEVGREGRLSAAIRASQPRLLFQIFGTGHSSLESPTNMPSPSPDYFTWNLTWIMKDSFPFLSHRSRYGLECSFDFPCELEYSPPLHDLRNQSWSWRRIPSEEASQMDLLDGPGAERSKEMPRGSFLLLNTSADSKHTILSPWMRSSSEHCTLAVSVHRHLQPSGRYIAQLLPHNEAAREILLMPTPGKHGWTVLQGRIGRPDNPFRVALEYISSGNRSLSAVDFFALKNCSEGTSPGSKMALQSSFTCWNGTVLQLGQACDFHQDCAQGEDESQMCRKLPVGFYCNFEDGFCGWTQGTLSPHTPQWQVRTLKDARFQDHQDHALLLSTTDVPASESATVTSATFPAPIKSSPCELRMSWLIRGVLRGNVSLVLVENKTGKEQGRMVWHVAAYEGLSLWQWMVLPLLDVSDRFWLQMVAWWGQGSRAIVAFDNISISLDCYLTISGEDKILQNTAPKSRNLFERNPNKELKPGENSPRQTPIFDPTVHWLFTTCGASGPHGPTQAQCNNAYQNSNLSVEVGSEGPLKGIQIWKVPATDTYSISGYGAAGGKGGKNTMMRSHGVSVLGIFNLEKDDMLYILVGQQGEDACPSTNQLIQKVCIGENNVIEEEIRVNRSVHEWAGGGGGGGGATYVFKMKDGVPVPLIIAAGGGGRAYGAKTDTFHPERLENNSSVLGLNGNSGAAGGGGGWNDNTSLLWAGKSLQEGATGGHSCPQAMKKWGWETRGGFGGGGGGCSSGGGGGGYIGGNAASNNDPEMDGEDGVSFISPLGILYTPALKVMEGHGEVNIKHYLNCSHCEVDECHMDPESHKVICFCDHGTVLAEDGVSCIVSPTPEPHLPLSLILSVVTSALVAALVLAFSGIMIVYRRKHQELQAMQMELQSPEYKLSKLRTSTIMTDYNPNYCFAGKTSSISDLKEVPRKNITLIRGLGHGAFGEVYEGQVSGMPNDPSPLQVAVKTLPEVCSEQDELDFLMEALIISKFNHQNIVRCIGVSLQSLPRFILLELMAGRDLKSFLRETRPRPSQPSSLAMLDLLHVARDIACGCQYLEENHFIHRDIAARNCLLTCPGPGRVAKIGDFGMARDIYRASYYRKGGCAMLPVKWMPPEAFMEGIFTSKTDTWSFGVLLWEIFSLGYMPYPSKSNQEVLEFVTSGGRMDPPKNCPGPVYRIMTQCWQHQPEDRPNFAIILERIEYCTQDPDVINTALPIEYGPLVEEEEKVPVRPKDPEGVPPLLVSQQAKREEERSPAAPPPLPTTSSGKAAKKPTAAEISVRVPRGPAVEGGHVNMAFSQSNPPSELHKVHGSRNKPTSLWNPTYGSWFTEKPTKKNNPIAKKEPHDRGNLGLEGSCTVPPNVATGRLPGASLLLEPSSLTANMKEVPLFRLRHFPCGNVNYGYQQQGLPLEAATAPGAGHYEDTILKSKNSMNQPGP
Sequence of ALK tyrosine kinase receptor (Homo sapiens, UniProt Q9UM73, L1196M) (Q9UM73 19-1620 L1196M limits assumed): as the sequence (Q9UM73 19-1620 G1202R limits assumed) above, with L1178M, R1184G counted along it

For orientation: IC50 means the point on the concentration scale where inhibition reaches its midpoint. `COC(=O)c1c(C)[nH]c2cc(Nc3ncc(Cl)c(Nc4ccccc4NS(C)(=O)=O)n3)ccc12`: the IC50 in data set [1] was more than 1000 nM; in data set [2] it was 3.2 nM; in data set [3], 45 nM; in data set [4], 82 nM; in data set [5], 1150 nM; in data set [6], 3.8 nM. For the same compound, in data set [7], the IC50 stood at 8.9 nM.

Take `CNC(=O)c1ccccc1Nc1nc(Nc2ccc3c(C(=O)N4CCN(CCO)CC4)c(C)[nH]c3c2)ncc1Cl`: the IC50 turned out to be 826 nM in data set [3], 933 nM in data set [4] and 13300 nM in data set [5].

`CNC(=O)c1ccccc1Nc1nc(Nc2ccc3c(C(=O)N4CC(O)C4)c(C)[nH]c3c2)ncc1Cl`: the concentration for half-maximal inhibition (IC50) was 782 nM in data set [3], 2170 nM in data set [4] and 180 nM in data set [5].

For `CNC(=O)c1ccccc1Nc1nc(Nc2ccc3c(C(=O)N4CCC(O)CC4)c(C)[nH]c3c2)ncc1Cl`, the IC50 is more than 1000 nM in data set [1]; 13.7 nM in data set [2]; 52 nM in data set [3]; 163 nM in data set [4]; 1900 nM in data set [5]; 10.2 nM in data set [6]. The 50% inhibitory concentration (IC50) in data set [7] amounted to 5.3 nM.

Regarding `CCOC(=O)c1c(C)[nH]c2cc(Nc3ncc(Cl)c(Nc4ccccc4NS(C)(=O)=O)n3)ccc12`, the results for the IC50 in data set [3], in data set [4] and in data set [5] were 53 nM, 91 nM and 1470 nM, respectively.

For `CNC(=O)c1ccccc1Nc1nc(Nc2ccc3c(C(=O)N4CCC(C)CC4)c(C)[nH]c3c2)ncc1Cl`, the IC50 in data set [1] is more than 1000 nM; in data set [2] it was 4.8 nM; in data set [3], 86 nM; in data set [4], 129 nM; in data set [5], more than 20000 nM; in data set [6], 3.9 nM. Further, the IC50 in data set [7] was 6.7 nM.

The term half-life denotes the time in which the quantity being followed falls by half. For `COc1cc(SCc2ccc(CN(C)C)o2)ccc1Nc1ncc(Cl)c(Nc2ccccc2NS(C)(=O)=O)n1`, the half-life at 10 µM in data set [8] worked out at 9.7 min.

As to `Cc1[nH]c2cc(Nc3ncc(Cl)c(Nc4ccccc4NS(C)(=O)=O)n3)ccc2c1C(=O)N1CCOCC1`, the IC50 was more than 1000 nM in data set [1]; 6.6 nM in data set [2]; 86 nM in data set [3]; 317 nM in data set [4]; 5360 nM in data set [5]; 5.7 nM in data set [6]. For the same compound, the IC50 in data set [7] was 5.9 nM.

For the compound `CCN1CCN(C(=O)c2c(C)[nH]c3cc(Nc4ncc(Cl)c(Nc5ccccc5NS(C)(=O)=O)n4)ccc23)CC1`, the IC50 in data set [3] is 132 nM; in data set [4], 247 nM; in data set [5], more than 20000 nM.

Turning to `Cc1[nH]c2cc(Nc3ncc(Cl)c(Nc4ccccc4NS(C)(=O)=O)n3)ccc2c1C(=O)NCCO`, the IC50 in data set [3] was 243 nM; in data set [4] it was 307 nM; in data set [5], more than 20000 nM.

Turning to `Cc1[nH]c2cc(Nc3ncc(Cl)c(Nc4ccccc4NS(C)(=O)=O)n3)ccc2c1C(=O)N1CC(O)C1`, the results for the 50% inhibitory concentration (IC50) in data set [3], in data set [4] and in data set [5] were 802 nM, 494 nM and more than 20000 nM, respectively.

With `Cc1[nH]c2cc(Nc3ncc(Cl)c(Nc4ccccc4NS(C)(=O)=O)n3)ccc2c1C(=O)N1CCCCC1`, the IC50 in data set [3] is 247 nM; in data set [4] it was 260 nM; in data set [5], 5920 nM.

As for `CCOC(=O)c1c(C)[nH]c2cc(Nc3ncc(Cl)c(Nc4ccccc4C(=O)NC)n3)ccc12`, the IC50 in data set [3] was found to be 150 nM; in data set [4] it was 170 nM; in data set [5] it was 3360 nM.

On to `CNC(=O)c1ccccc1Nc1nc(Nc2ccc3c(C(=O)N4CCCCC4)c(C)[nH]c3c2)ncc1Cl`, for which the IC50 came to 63 nM in data set [3], 99 nM in data set [4] and 448 nM in data set [5].

For `CCc1[nH]c2cc(Nc3ncc(Cl)c(Nc4ccccc4C(=O)NC)n3)ccc2c1C(=O)OC`, the figures for the IC50 in data set [3], in data set [4] and in data set [5] were 110 nM, 790 nM and 3720 nM, respectively.

Regarding `CCCc1[nH]c2cc(Nc3ncc(Cl)c(Nc4ccccc4C(=O)NC)n3)ccc2c1C(=O)OCC`, the IC50 in data set [3] was 1170 nM; in data set [4], 4350 nM; in data set [5], 7750 nM.

For the compound `CNC(=O)c1ccccc1Nc1nc(Nc2ccc3c(C(=O)OC)c(C)[nH]c3c2)ncc1Cl`, the IC50 is more than 1000 nM in data set [1]; 3.4 nM in data set [2]; 37 nM in data set [3]; 77 nM in data set [4]; 3720 nM in data set [5]; 3 nM in data set [6]. The IC50 in data set [7] came to 6.3 nM.

As for `Cc1[nH]c2cc(Nc3ncc(Cl)c(Nc4ccccc4NS(C)(=O)=O)n3)ccc2c1C(=O)N1CCSCC1`, the IC50 amounted to 375 nM in data set [3], 828 nM in data set [4] and 4220 nM in data set [5].

`Cc1[nH]c2cc(Nc3ncc(Cl)c(Nc4ccccc4NS(C)(=O)=O)n3)ccc2c1C(=O)N1CCN(C)CC1`: the IC50 in data set [3] was 113 nM; in data set [4] it was 214 nM; in data set [5], more than 20000 nM.

For the compound `CCOC(=O)c1c(CC)[nH]c2cc(Nc3ncc(Cl)c(Nc4ccccc4C(=O)NC)n3)ccc12`, the figures for the IC50 in data set [3], in data set [4] and in data set [5] were 970 nM, 1370 nM and 6230 nM, respectively.

For `Cc1[nH]c2cc(Nc3ncc(Cl)c(Nc4ccccc4NS(C)(=O)=O)n3)ccc2c1C(=O)N1CCC(C)CC1`, the IC50 was more than 1000 nM in data set [1]; 12.7 nM in data set [2]; 52 nM in data set [3]; 203 nM in data set [4]; more than 20000 nM in data set [5]; 8.3 nM in data set [6]. In addition, the IC50 in data set [7] turned out to be 6.5 nM.

On to `CCN1CCN(C(=O)c2c(C)[nH]c3cc(Nc4ncc(Cl)c(Nc5ccccc5C(=O)NC)n4)ccc23)CC1`, for which the IC50 in data set [3] came to 61 nM; in data set [4], 571 nM; in data set [5], 6630 nM.

With `COC(=O)c1c(C)[nH]c2cc(Nc3ncc(Cl)c(Nc4ccccc4NC(C)=O)n3)ccc12`, the half-inhibitory concentration (IC50) in data set [3] is 600 nM; in data set [4], 2560 nM; in data set [5], 2960 nM.

Consider `CNC(=O)c1ccccc1Nc1nc(Nc2ccc3c(C(=O)N4CCC[C@@H]4CO)c(C)[nH]c3c2)ncc1Cl`, for which the IC50 in data set [3] was 558 nM; in data set [4], 732 nM; in data set [5] it was 5760 nM.

For `Cc1[nH]c2cc(Nc3ncc(Cl)c(Nc4ccccc4NS(C)(=O)=O)n3)ccc2c1C(=O)N1CCN(CCO)CC1`, the IC50 in data set [3] is 735 nM; in data set [4], 329 nM; in data set [5], more than 20000 nM.

On to `Cc1[nH]c2cc(Nc3ncc(Cl)c(Nc4ccccc4NS(C)(=O)=O)n3)ccc2c1C(=O)N(C)C`, for which the IC50 amounted to 50 nM in data set [3], 97 nM in data set [4] and 4140 nM in data set [5].

As for `Cc1[nH]c2cc(Nc3ncc(Cl)c(Nc4ccccc4NS(C)(=O)=O)n3)ccc2c1C(=O)N1CCC[C@@H]1CO`, the half-inhibitory concentration (IC50) in data set [3] came to 485 nM; in data set [4], 2570 nM; in data set [5] it was 17800 nM.

On to `Cc1[nH]c2cc(Nc3ncc(Cl)c(Nc4ccccc4NS(C)(=O)=O)n3)ccc2c1C(=O)N1CCCC1`, for which the IC50 amounted to 52 nM in data set [3], 102 nM in data set [4] and 974 nM in data set [5].

As to `CNC(=O)c1ccccc1Nc1nc(Nc2ccc3c(C(=O)N4CCOCC4)c(C)[nH]c3c2)ncc1Cl`, the results for the half-inhibitory concentration (IC50) in data set [3], in data set [4] and in data set [5] were 42 nM, 69 nM and 5790 nM, respectively.

On to `CNC(=O)c1ccccc1Nc1nc(Nc2ccc3c(C(=O)N4CCN(C)CC4)c(C)[nH]c3c2)ncc1Cl`, for which the IC50 worked out at 36 nM in data set [3], 83 nM in data set [4] and 720 nM in data set [5].

Take `Cc1[nH]c2cc(Nc3ncc(Cl)c(Nc4ccccc4NS(C)(=O)=O)n3)ccc2c1C(=O)O`: the IC50 in data set [3] is 2160 nM; in data set [4], 2600 nM; in data set [5], 5800 nM.

Take `Cc1[nH]c2cc(Nc3ncc(Cl)c(Nc4ccccc4NS(C)(=O)=O)n3)ccc2c1C(=O)N1CCC(O)CC1`: the IC50 in data set [3] is 141 nM; in data set [4], 257 nM; in data set [5] it was more than 20000 nM.

With `CNC(=O)c1ccccc1Nc1nc(Nc2ccc3c(C(=O)N4CCCC4)c(C)[nH]c3c2)ncc1Cl`, the results for the IC50 in data set [3], in data set [4] and in data set [5] were 39 nM, 70 nM and 2720 nM, respectively.
